Measured values published in patent publication US20150080475A1, “Memantine Protects Inflammation-Related Degeneration of Dopamine Neurons Through Inhibition of Over-Activated Microglia and Release of Neurotrophic Factors From Astroglia” (priority 2009, published 2015).

Biological target: T1, gp 91 (Homo sapiens, UniProt P04839)
T1 sequence (P04839 1-570): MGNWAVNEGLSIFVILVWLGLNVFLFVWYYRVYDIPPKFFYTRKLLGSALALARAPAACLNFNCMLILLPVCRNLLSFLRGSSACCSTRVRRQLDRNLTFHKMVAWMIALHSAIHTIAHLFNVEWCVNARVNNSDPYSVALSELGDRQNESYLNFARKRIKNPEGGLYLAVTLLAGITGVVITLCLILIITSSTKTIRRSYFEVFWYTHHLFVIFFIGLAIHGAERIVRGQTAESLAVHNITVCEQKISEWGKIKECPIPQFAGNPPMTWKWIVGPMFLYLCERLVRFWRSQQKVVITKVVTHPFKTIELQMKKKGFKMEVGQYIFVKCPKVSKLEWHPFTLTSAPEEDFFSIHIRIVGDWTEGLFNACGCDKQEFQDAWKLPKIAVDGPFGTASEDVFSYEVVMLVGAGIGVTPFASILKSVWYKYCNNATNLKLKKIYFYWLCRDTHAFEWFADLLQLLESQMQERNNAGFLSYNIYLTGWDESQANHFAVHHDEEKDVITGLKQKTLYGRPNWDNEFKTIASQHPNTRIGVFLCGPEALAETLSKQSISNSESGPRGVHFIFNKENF
T1 sequence (P13498 1-195 partner): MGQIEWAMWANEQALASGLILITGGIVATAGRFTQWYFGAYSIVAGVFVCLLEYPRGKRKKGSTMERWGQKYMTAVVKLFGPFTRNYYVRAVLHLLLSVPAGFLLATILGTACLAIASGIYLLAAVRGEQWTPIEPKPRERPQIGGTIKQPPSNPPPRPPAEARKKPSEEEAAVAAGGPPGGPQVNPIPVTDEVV
Assay: Competition of [3H]-labeled naloxine binding
Conditions: preliminary data
Source text: Results from two sets of experiments support this conclusion. […] Thus, the failure for MMT to protect LPS-induced DA neurons toxicity in NADPH oxidase-deficient neuron/glia cultures implies a critical role of this enzyme in mediating the neuroprotective effect of MMT. The present invention determines the binding site of MMT in microglia.

`CC12CC3CC(C)(C1)CC(N)(C3)C2.Cl` [MMT, 1-amino-3,5-dimethyladamantane hydrochloride] was tested, and the “competing the binding of [3H]-labeled naloxine” value was “effective in competing the binding”.
